Laboratory results: article PMC8827060, “Identification and characterization of L- and D-lactate-inducible systems from Escherichia coli MG1655, Cupriavidus necator H16 and Pseudomonas species” (Scientific Reports, 2022)

Test system: T1, CnGntR
T1 construct: gene gntR; full-length TR gene with PH16_RS19190-mRFP1 reporter on plasmid pEA007; host C. necator H16; regulator of cluster H16_RS19175-H16_RS19195, its own locus tag inferred
Assay: mRFP1 reporter dose-response in cells, Hill fit
Type: cell-based, Cupriavidus necator
Conditions: inducer of transcriptional regulator; half-maximal reporter output; host C. necator H16; minimal medium with 0.4% gluconate, 30 °C, 6 h; Hill coefficient 1.19; read-out: Km
Description: mRFP1 reporter dose-response in cells, Hill fit on CnGntR

EC50: 670 ± 210 µM
Compound: C[C@H](O)C(=O)O [L-lactate]
